Data from US8524917B2, “6-substituted indole-3-carboxylic acid amide compounds having sphingosine-1-phosphate (S1P) receptor antagonist biological activity” (Allergan, Inc., priority 2007, dated 2013).
pIC50: −log10 of the molar value. Where two headings read alike, the source gives them in different places.

Key:
human S1P3 receptor = human S1P3 receptor (Homo sapiens (Human), UniProt Q99500); experiment: Activation or block of activation of human S1P3 receptor, Ca+2 FLIPR assay; assay type: cell-based; conditions: for pIC50: read-out: S1P3 IC50
Sequence of human S1P3 receptor (Q99500 whole entry): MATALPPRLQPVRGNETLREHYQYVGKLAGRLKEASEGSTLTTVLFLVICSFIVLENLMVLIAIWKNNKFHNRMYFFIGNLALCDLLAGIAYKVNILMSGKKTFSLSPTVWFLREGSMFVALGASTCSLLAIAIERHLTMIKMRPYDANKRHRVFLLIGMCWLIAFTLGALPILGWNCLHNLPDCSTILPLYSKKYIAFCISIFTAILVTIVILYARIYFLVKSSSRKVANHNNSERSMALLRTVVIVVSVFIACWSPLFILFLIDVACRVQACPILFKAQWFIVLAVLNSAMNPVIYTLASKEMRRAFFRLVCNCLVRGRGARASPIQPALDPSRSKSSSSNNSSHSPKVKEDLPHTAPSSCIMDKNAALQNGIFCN
In short: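 T24 cells stably expressing human S1P3, grown in charcoal-treated FBS, dye-loaded and read on FLIPR for calcium after ligand addition in HBSS/20 mM HEPES (1 s readings for 75 s, then every 10 s for 2.5 min). Agonist or antagonist mode; S1P positive control in 4 mg/ml fatty-acid-free BSA. IC50 by Levenberg–Marquardt regression.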

perfused porcine eyes = conditions: by altering paracellular permeability, IOVS 45, 2263, 2004; cited from earlier work
[1] = T24 cells stably expressing the human S1P3 receptor, FLIPR Ca+2 response, 0.61 nM to 10,000 nM
[2] = T24 cells stably expressing the human S1P3 receptor, value in brackets

| SMILES | pIC50 (human S1P3 receptor; [1]) | S1P3 (% inh) (human S1P3 receptor; [2]) [%] | S1P3 (% inh) (human S1P3 receptor) | pIC50 (human S1P3 receptor) | decrease of outflow facility (perfused porcine eyes) [%] |
| --- | --- | --- | --- | --- | --- |
| CC(C)Oc1ccc2c(C(=O)NCc3ccc(F)c(F)c3)c(C[N+]3(C)CCCC3)n(Cc3ccccn3)c2c1.[I-] [Compound 176, 1-((3-(3,4-Difluorobenzylcarbamoyl)-6-isopropoxy-1-(pyridin-2-ylmethyl)-1H-indol-2-yl)methyl)-1-methylpyrrolidinium iodide] | 5.12 | 98 |  |  |  |
| CC(C)c1c(C(=O)NCc2ccc(F)c(F)c2)c2ccc(NC3CCCC3)cc2n1Cc1ccccn1 [Compound 183, 6-(Cyclopentylamino)-N-(3,4-difluorobenzyl)-2-isopropyl-1-(pyridin-2-ylmethyl)-1H-indole-3-carboxamide] | 6.82 | 100 |  |  |  |
| CC(C)c1c(C(=O)NCc2ccc(F)c(F)c2)c2ccc(NC3=NCCS3)cc2n1Cc1ccccn1 [Compound 184, N-(3,4-Difluorobenzyl)-6-(4,5-dihydrothiazol-2-ylamino)-2-isopropyl-1-(pyridin-2-ylmethyl)-1H-indole-3-carboxamide] | < 5.08 | 80 |  |  |  |
| CC(C)c1c(C(=O)NCc2ccc(F)c(F)c2)c2ccc(N(C)C3CCCC3)cc2n1Cc1ccccc1 [Compound 189, 1-Benzyl-6-(cyclopentyl(methyl)amino)-N-(3,4-difluorobenzyl)-2-isopropyl-1H-indole-3-carboxamide] | 7.06 | 100 |  |  |  |
| CC(C)c1c(C(=O)NCc2ccc(F)c(F)c2)c2ccc(NC3CCC3)cc2n1Cc1ccccc1 [Compound 190, 1-Benzyl-6-(cyclobutylamino)-N-(3,4-difluorobenzyl)-2-isopropyl-1H-indole-3-carboxamide] |  |  | 13 nM (100) % | 7.89 |  |
| CC(C)c1c(C(=O)NCc2cc(F)cc(F)c2)c2ccc(NC3CCCC3)cc2n1Cc1ccccc1 [Compound 191, 1-Benzyl-6-(cyclopentylamino)-N-(3,5-difluorobenzyl)-2-isopropyl-1H-indole-3-carboxamide] | 7.42 | 99 |  |  |  |
| CC(C)c1c(C(=O)NCc2ccc(F)cc2)c2ccc(NC3CCCC3)cc2n1Cc1ccccc1 [Compound 192, 1-Benzyl-6-(cyclopentylamino)-N-(4-fluorobenzyl)-2-isopropyl-1H-indole-3-carboxamide] |  |  | 70 nM (100) % | 7.15 |  |
| CC(C)c1c(C(=O)NCc2cncc(F)c2)c2ccc(NC3CCCC3)cc2n1Cc1ccccc1 [Compound 193, 1-Benzyl-6-(cyclopentylamino)-N-((5-fluoropyridin-3-yl)methyl)-2-isopropyl-1H-indole-3-carboxamide] |  |  | 163 nM (100) % | 6.79 |  |
| CC(C)c1c(C(=O)NCc2cc(F)cc(F)c2)c2ccc(NC3CCC3)cc2n1Cc1ccccc1 [Compound 194, 1-Benzyl-6-(cyclobutylamino)-N-(3,5-difluorobenzyl)-2-isopropyl-1H-indole-3-carboxamide] |  |  | 20 nM (100) % | 7.70 |  |
| CC(C)c1c(C(=O)NCc2ccc(F)cc2)c2ccc(NC3CCC3)cc2n1Cc1ccccc1 [Compound 195, 1-Benzyl-6-(cyclobutylamino)-N-(4-fluorobenzyl)-2-isopropyl-1H-indole-3-carboxamide] | 7.29 | 99 |  |  |  |
| CC(C)c1c(C(=O)NCc2ccc(F)c(F)c2)c2ccc(NC3CCC3)cc2n1Cc1ccccn1 [Compound 197, 6-(Cyclobutylamino)-N-(3,4-difluorobenzyl)-2-isopropyl-1-(pyridin-2-ylmethyl)-1H-indole-3-carboxamide] | 7.17 | 100 |  |  |  |
| [2H]C([2H])([2H])C([2H])(Oc1ccc2c(C(=O)NCc3ccc(F)c(F)c3)c(C(=C)C)n(Cc3ccccn3)c2c1)C([2H])([2H])[2H] [Compound 199, N-(3,4-Difluorobenzyl)-2-isopropenyl-6-isopropoxy-1-(pyridin-2-ylmethyl)-1H-indole-3-carboxamide-d7] | 7.29 | 100 |  |  |  |
| CC(C)c1c(C(=O)NCc2ccc(F)c(F)c2)c2ccc(N3CCOCC3)cc2n1Cc1ccccn1 [Compound 207, N-(3,4-Difluorobenzyl)-2-isopropyl-6-morpholino-1-(pyridin-2-ylmethyl)-1H-indole-3-carboxamide] | 6.89 | 97 |  |  |  |
| CC(C)c1c(C(=O)NCc2ccc(F)c(F)c2)c2ccc(OC3CCCC3)cc2n1Cc1ncco1 [Compound 211, 6-(Cyclopentyloxy)-N-(3,4-difluorobenzyl)-2-isopropyl-1-(oxazol-2-ylmethyl)-1H-indole-3-carboxamide] | 8.00 | 100 |  |  |  |
| CCCOc1ccc2c(C(=O)NCc3ccc(F)c(F)c3)c(C(C)C)n(Cc3ncco3)c2c1 [Compound 212, N-(3,4-Difluorobenzyl)-2-isopropyl-1-(oxazol-2-ylmethyl)-6-propoxy-1H-indole-3-carboxamide] |  |  | 393 nM (100) % | 6.41 |  |
| CC(C)Oc1ccc2c(C(=O)NCc3ccc(F)c(F)c3)c(C(C)C)n(Cc3ncco3)c2c1 [Compound 213, N-(3,4-Difluorobenzyl)-6-isopropoxy-2-isopropyl-1-(oxazol-2-ylmethyl)-1H-indole-3-carboxamide] | 6.72 | 100 |  |  |  |
| CC(C)c1c(C(=O)NCc2ccc(F)c(F)c2)c2ccc(Oc3nccs3)cc2n1Cc1ncco1 [Compound 214, N-(3,4-Difluorobenzyl)-2-isopropyl-1-(oxazol-2-ylmethyl)-6-(thiazol-2-yloxy)-1H-indole-3-carboxamide] | 7.28 | 100 |  |  |  |
| CC(C)c1c(C(=O)NCc2ccc(F)c(F)c2)c2ccc(Oc3ncc(Br)s3)cc2n1Cc1ncco1 [Compound 215, 6-(5-Bromothiazol-2-yloxy)-N-(3,4-difluorobenzyl)-2-isopropyl-1-(oxazol-2-ylmethyl)-1H-indole-3-carboxamide] | 7.64 | 99 |  |  |  |
| Cc1cc(Cn2c(C(C)C)c(C(=O)NCc3ccc(F)c(F)c3)c3ccc(O)cc32)no1 [Compound 218, N-(3,4-Difluorobenzyl)-6-hydroxy-2-isopropyl-1-((5-methylisoxazol-3-yl)methyl)-1H-indole-3-carboxamide] | 5.27 | 67 |  |  |  |
| Cc1cc(Cn2c(C(C)C)c(C(=O)NCc3ccc(F)c(F)c3)c3ccc(OC4CCCC4)cc32)no1 [Compound 219, 6-(Cyclopentyloxy)-N-(3,4-difluorobenzyl)-2-isopropyl-1-((5-methylisoxazol-3-yl)methyl)-1H-indole-3-carboxamide] | 7.42 | 99 |  |  |  |
| CCOC(=O)Cn1c(C(C)C)c(C(=O)NCc2ccc(F)c(F)c2)c2ccc(OC3CCCC3)cc21 [Compound 223, Ethyl 2-(6-(Cyclopentyloxy)-3-(3,4-difluorobenzylcarbamoyl)-2-isopropyl-1H-indol-1-yl)acetate] |  |  | 24 nM (100) % | 7.62 |  |
| COC(=O)c1c(C(=O)NCc2ccc(F)c(F)c2)c2ccc(OC(C)C)cc2n1Cc1ccccn1 [Compound 226, Methyl 3-(3,4-Difluorobenzylcarbamoyl)-6-isopropoxy-1-(pyridin-2-ylmethyl)-1H-indole-2-carboxylate] | 7.06 | 100 |  |  |  |
| CCCCCCCCCCCCC/C=C/[C@@H](O)[C@@H](N)COP(=O)(O)O [Compound S1P, Sphingosine-1-Phosphate] |  |  |  |  | > 30 |
| CC(C)c1c(C(=O)NCc2ccc(F)c(F)c2)c2ccc(OC3CCCO3)cc2n1Cc1ccccn1 (stereo not shown) [drawing 164] | 8.05 | 100 |  |  |  |
| CC(C)c1c(C(=O)NCc2ccc(F)c(F)c2)c2ccc(OC3CCCO3)cc2n1Cc1ccccn1 (stereo not shown) [drawing 169] | 8.05 | 100 |  |  |  |
